The values that follow come from patent US20150133436A1, “Bromodomain Inhibitors For Treating Autoimmune And Inflammatory Diseases” (GlaxoSmithKline LLC, priority 2009, published 2015).

For one data set, the system named is TNFα. Nature of the data set: Lipopolysaccharide (LPS) stimulated whole blood measuring TNFα levels assay. The data set is classed as cell-based. The note with it: LPS 200 ng/ml, 24 hours, read-out: pIC50, TNFα levels in LPS stimulated whole blood (converted). On the procedure:
Activation of monocytic cells by agonists of toll-like receptors such as bacterial lipopolysaccharide (LPS) results in production of key inflammatory mediators including TNFα. Such pathways are widely considered to be central to the pathophysiology of a range of auto-immune and inflammatory disorders.
After further incubation for 24 hours at 37 degrees, 140 ul of PBS are added to each well. The plates are sealed, shaken for 10 minutes and then centrifuged (2500 rpm×10 min). 100 ul of the supernatant are removed and TNFα levels assayed by immunoassay (typically by MesoScale Discovery technology) either immediately or following storage at −20 degrees. Dose response curves for each compound was generated from the data and an IC50 value was calculated.

Data set [1] concerns Balb/c male mice given a lethal dose of LPS. Nature of the data set: In vivo mouse endotoxemia model. The note with it: 15 mg/kg LPS i.p., compound 10 mg/kg intravenously ninety minutes later; for Numbers of animals surviving at 4 days (summed across multiple repeat experiments): survivors/total. The text has this:
High doses of Endotoxin (bacterial lipopolysaccharide) administered to animals produce a profound shock syndrome including a strong inflammatory response, dysregulation of cardiovascular function, organ failure and ultimately mortality. This pattern of response is very similar to human sepsis and septic shock, where the body's response to a significant bacterial infection can be similarly life threatening.
To test the compounds for use in the invention groups of eight Balb/c male mice were given a lethal dose of 15 mg/kg LPS by intraperitoneal injection. Ninety minutes later, animals were dosed intravenously with vehicle (20% cyclodextrin 1% ethanol in apyrogen water) or compound (10 mg/kg). The survival of animals was monitored at 4 days.

The molecule `Cc1nnc2c(NC(N)=O)cc3cc(-c4ccc(CN5CCCCC5)cc4)ccc3n12` [Example 6, N-{1-methyl-7-[4-(1-piperidinylmethyl)phenyl][1,2,4]triazolo[4,3-a]quinolin-4-yl}urea] showed a melting point of over 260 °C. For the same molecule, the IC50 with TNFα was at most 1000 nM.
With `COc1cc2c(cc1-c1c(C)noc1C)ncc1nc(C3CCOCC3)n([C@H](C)c3ccccc3)c12` [Example 4, 7-(3,5-dimethyl-4-isoxazolyl)-8-(methoxy)-1-[(1R)-1-phenylethyl]-2-(tetrahydro-2H-pyran-4-yl)-1H-imidazo[4,5-c]quinoline], the IC50 in the data set with TNFα is at most 1000 nM. In addition, in data set [1], the “Animals surviving at 4 days, percent” value is given as “(38%)” and the “Numbers of animals surviving at 4 days (summed across multiple repeat experiments)” value is on record as 9/24.
Regarding `CNCc1ccc(-c2ccc3c(c2)[C@H](NC(=O)OC(C)C)C[C@H](C)N3C(C)=O)cc1` [Example 1, 1-methylethyl ((2S,4R)-1-acetyl-2-methyl-6-{4-[(methylamino)methyl]phenyl}-1,2,3,4-tetrahydro-4-quinolinyl)carbamate], the IC50 with TNFα was at most 1000 nM.
As for `CC(=O)N1c2ccc(-c3ccc(C(=O)O)cc3)cc2[C@H](Nc2ccc(Cl)cc2)C[C@@H]1C` [Example 5, 4-{(2S,4R)-1-acetyl-4-[(4-chlorophenyl)amino]-2-methyl-1,2,3,4-tetrahydro-6-quinolinyl}benzoic acid], the IC50 in the data set on TNFα was at most 1000 nM. Further, in data set [1], the “Animals surviving at 4 days, percent” value is recorded as “(58%)” and the “Numbers of animals surviving at 4 days (summed across multiple repeat experiments)” value is recorded as 14/24.
The matching figures for `COc1cc2c(cc1-c1c(C)noc1C)ncc1[nH]c(=O)n([C@H](C)c3ccccn3)c12` [Example 3, 7-(3,5-dimethyl-4-isoxazolyl)-8-(methoxy)-1-[(1R)-1-(2-pyridinyl)ethyl]-1,3-dihydro-2H-imidazo[4,5-c]quinolin-2-one]: at most 1000 nM, “(83%)” and 55/66.
